Reference: patent US8859601B2, “Substituted benzyl and phenylsulfonyl triazolones, and use thereof” (Bayer Intellectual Property GmbH, priority 2008, dated 2014)

Columns and labels:
human V1a receptor = target: T1, human V1a receptor (Homo sapiens, UniProt P37288); test: Cellular in vitro assay for determining the vasopressin receptor activity (aequorin luminescence, antagonism of [Arg8]-vasopressin), hV1a; format: cell-based; conditions: CHO cell line transfected with the human V1a receptor; agonist [Arg8]-vasopressin
T1 construct: expressed in transfected cells; host or cells: CHO K1 (ATCC), constitutively expressing a modified aequorin
T1 sequence (P37288 whole entry): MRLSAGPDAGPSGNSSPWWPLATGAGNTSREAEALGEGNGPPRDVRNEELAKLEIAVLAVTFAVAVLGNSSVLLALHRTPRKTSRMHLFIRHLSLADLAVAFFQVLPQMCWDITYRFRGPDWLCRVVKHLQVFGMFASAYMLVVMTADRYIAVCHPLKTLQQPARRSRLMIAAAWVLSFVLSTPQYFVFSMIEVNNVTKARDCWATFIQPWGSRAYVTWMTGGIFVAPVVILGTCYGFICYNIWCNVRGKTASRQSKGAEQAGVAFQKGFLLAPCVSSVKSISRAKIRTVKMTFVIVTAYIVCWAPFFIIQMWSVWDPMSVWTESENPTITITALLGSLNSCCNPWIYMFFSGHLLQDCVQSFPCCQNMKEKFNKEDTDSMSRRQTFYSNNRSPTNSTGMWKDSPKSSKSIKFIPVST
Source text: (§1) B-1. Cellular In Vitro Assay for Determining the Vasopressin Receptor Activity
(§2) The identification of agonists and antagonists of the V1a and V2 vasopressin receptors from humans and rats and also the quantification of the activity of the substances described here took place using recombinant cell lines. These cells derive originally from a hamster ovary epithelial cell (Chinese Hamster Ovary, CHO K1, ATCC: American Type Culture Collection, Manassas, Va. 20108, USA). The test cell lines constitutively express a modified form of the calcium-sensitive photoprotein aequorin, which, after reconstitution with the cofactor coelenterazine, emits light when there are increases in the free calcium concentration (Rizzuto R., Simpson A. W., Brini M., Pozzan T.; Nature 358 (1992) 325-327). In addition, the cells are stably transfected with the human or rat V1a or V2 receptors. In the case of the Gs-coupling V2 receptors, the cells are stably transfected with a further gene, which codes for the promiscuous Gα16 protein (Amatruda T. T., Steele D. A., Slepak V. Z., Simon M. I., Proc. Nat. Acad. Sci. USA 88 (1991), 5587-5591), either independently or as a fusion gene. The resulting vasopressin receptor test cells react to stimulation of the recombinantly expressed vasopressin receptors by intracellular release of calcium ions, which can be quantified by the resulting aequorin luminescence using a suitable luminometer (Milligan G., Marshall F., Rees S., Trends in Pharmaco. Sci. 17 (1996) 235-237).
(§3) On the day before the assay, the cells are plated out in culture medium (DMEM, 10% FCS, 2 mM glutamine, 10 mM HEPES) in 384-well microtiter plates and kept in a cell incubator (96% humidity, 5% v/v carbon dioxide, 37° C.). On the day of the assay, the culture medium is replaced by a Tyrode solution (140 mM sodium chloride, 5 mM potassium chloride, 1 mM magnesium chloride, 2 mM calcium chloride, 20 mM glucose, 20 mM HEPES), which additionally contains the cofactor coelenterazine (50 μM), and the microtiter plate is then incubated for a further 3-4 hours. The test substances in various concentrations are placed for 10 to 20 minutes in the wells of the microtiter plate before the agonist [Arg8]-vasopressin is added, and the resulting light signal is measured immediately in the luminometer. The IC50 values are calculated using the GraphPad PRISM computer program (Version 3.02).
(§4) The table below lists representative IC50 values for the compounds of the invention on the cell line transfected with the human V1a or V2 receptor: […]

human V2 receptor = target: T2, human V2 receptor (Homo sapiens, UniProt P30518); test: Cellular in vitro assay for determining the vasopressin receptor activity (aequorin luminescence, antagonism of [Arg8]-vasopressin), hV2; format: cell-based; conditions: CHO cell line transfected with the human V2 receptor (and Gα16); agonist [Arg8]-vasopressin
T2 construct: Gα16 (possible fusion partner; the text leaves open whether it was fused or expressed separately); expressed in transfected cells; host or cells: CHO K1 (ATCC), constitutively expressing a modified aequorin and co-transfected with Gα16
T2 sequence (P30518 whole entry, the tested form may be a part): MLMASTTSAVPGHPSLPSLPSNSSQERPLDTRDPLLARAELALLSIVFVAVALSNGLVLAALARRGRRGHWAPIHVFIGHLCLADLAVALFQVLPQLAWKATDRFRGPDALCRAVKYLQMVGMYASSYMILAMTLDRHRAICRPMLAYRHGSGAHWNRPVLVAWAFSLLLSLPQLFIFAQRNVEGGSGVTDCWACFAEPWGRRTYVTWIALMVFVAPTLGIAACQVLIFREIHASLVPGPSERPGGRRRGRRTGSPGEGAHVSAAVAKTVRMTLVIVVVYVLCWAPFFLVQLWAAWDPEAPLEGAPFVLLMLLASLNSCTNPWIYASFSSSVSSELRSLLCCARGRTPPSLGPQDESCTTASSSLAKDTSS
Source text: as §1, §2, §3, §4

Compound	IC50 (human V1a receptor) [nM]	IC50 (human V2 receptor) [nM]
COc1cc(Cn2nc(-c3ccc(Cl)cc3)n(C3CC3)c2=O)ccc1C(=O)NC(C)(C)C [Example 22, N-tert-Butyl-4-{[3-(4-chlorophenyl)-4-cyclopropyl-5-oxo-4,5-dihydro-1H-1,2,4-triazol-1-yl]methyl}-2-methoxybenzamide]	870	220
CC(C)(C)NC(=O)c1ccc(S(=O)(=O)n2nc(-c3ccc(Cl)cc3)n(C3CC3)c2=O)cc1 [Example 17, N-tert-Butyl-4-{[3-(4-chlorophenyl)-4-cyclopropyl-5-oxo-4,5-dihydro-1H-1,2,4-triazol-1-yl]sulphonyl}benzenecarboxamide]	7100	4
COc1cc(C(=O)NC(C)(C)C)ccc1S(=O)(=O)n1nc(-c2ccc(Cl)cc2)n(C2CC2)c1=O [Example 2]	3700	3
COc1ccc(C(C)=O)cc1S(=O)(=O)n1nc(-c2ccc(Cl)cc2)n(C2CC2)c1=O [Example 13]	3500	290
COc1cc(C(=O)NC(C)(C)C)ccc1S(=O)(=O)n1nc(-c2ccc(Cl)cc2)[nH]c1=O [Example 14, N-tert-Butyl-4-{[3-(4-chlorophenyl)-5-oxo-4,5-dihydro-1H-1,2,4-triazol-1-yl]sulphonyl}-3-methoxybenzenecarboxamide]	> 25000	9
COc1cc(C(=O)NC(C)(C)C)ccc1S(=O)(=O)n1nc(N(C)C)n(C2CC2)c1=O [Example 7]	> 25000	7
COc1cc(C(=O)NC(C)(C)C)ccc1S(=O)(=O)n1nc(OC(C)C)n(C2CC2)c1=O [Example 3]	> 25000	13
COc1cc(C(=O)NC(C)(C)C)ccc1Cn1nc(-c2ccc(Cl)cc2)n(C2CC2)c1=O [Example 20, N-tert-Butyl-4-{[3-(4-chlorophenyl)-4-cyclopropyl-5-oxo-4,5-dihydro-1H-1,2,4-triazol-1-yl]methyl}-3-methoxybenzenecarboxamide]	15200	4
CC(C)(C)NC(=O)c1ccc(Cn2nc(-c3ccc(Cl)cc3)n(C3CC3)c2=O)c(Cl)c1 [Example 27, N-tert-Butyl-3-chloro-4-{[3-(4-chlorophenyl)-4-cyclopropyl-5-oxo-4,5-dihydro-1H-1,2,4-triazol-1-yl]methyl}benzamide]	4200	27
C=CCn1c(-c2ccc(Cl)cc2)nn(S(=O)(=O)c2ccc(C(=O)NC(C)(C)C)cc2OC)c1=O [Example 1, N-tert-Butyl-4-{[3-(4-chlorophenyl)-5-oxo-4-prop-2-en-1-yl-4,5-dihydro-1H-1,2,4-triazol-1-yl]sulphonyl}-3-methoxybenzenecarboxamide]	5500	3
